Laboratory results as given in US20240124409A1, “GUAIANOLIDE SESQUITERPENE LACTONE DERIVATIVES AND PHARMACEUTICAL USE THEREOF” (NANJING UNIVERSITY OF CHINESE MEDICINE, priority 2021, published 2024).
≈ marks a conversion by molar mass, not a printed value.

Assays:
[1] = Stability in artificial gastric juice environment (HPLC); details: 37° C.
Description: The samples were dissolved in 500 μL of chromatographic methanol, into which were added 1500 μL of artificial gastric juice, mixed well and then dissolved completely by ultrasound. 50 μL of the above solutions were aspirated precisely, diluted by adding 200 μL of chromatographic methanol, filtered and analyzed by HPLC, wherein the HPLC analysis conditions were mobile phase: 65% methanol -35% water, flow rate: 0.8 mL/min, and column temperature: 25° C., and the initial peak areas were recorded. The above solutions were placed on a constant temperature water bath at 37° C., sampled at 8 h, 16 h and 24 h respectively, and analyzed by HPLC. By calculating the peak areas respectively, the stability data of the corresponding samples in artificial gastric juice environment at 8 h, 16 h and 24 h can be obtained.

NLRP3 inflammasome = target: T1, NLRP3 inflammasome (Mus musculus, UniProt Q8R4B8); test: Inhibition of LPS and ATP induced NLRP3 inflammasome activation in BMDMs (IL-1β level); assay type: cell-based, C57BL/6 mice; details: read-out: IC50, inhibitory effect on activation of NLRP3 inflammasome
T1 construct: endogenous in cells; host or cells: primary bone marrow-derived macrophages (BMDMs) from female C57BL/6 mice, differentiated with rmM-CSF
T1 sequence (Q8R4B8 whole entry): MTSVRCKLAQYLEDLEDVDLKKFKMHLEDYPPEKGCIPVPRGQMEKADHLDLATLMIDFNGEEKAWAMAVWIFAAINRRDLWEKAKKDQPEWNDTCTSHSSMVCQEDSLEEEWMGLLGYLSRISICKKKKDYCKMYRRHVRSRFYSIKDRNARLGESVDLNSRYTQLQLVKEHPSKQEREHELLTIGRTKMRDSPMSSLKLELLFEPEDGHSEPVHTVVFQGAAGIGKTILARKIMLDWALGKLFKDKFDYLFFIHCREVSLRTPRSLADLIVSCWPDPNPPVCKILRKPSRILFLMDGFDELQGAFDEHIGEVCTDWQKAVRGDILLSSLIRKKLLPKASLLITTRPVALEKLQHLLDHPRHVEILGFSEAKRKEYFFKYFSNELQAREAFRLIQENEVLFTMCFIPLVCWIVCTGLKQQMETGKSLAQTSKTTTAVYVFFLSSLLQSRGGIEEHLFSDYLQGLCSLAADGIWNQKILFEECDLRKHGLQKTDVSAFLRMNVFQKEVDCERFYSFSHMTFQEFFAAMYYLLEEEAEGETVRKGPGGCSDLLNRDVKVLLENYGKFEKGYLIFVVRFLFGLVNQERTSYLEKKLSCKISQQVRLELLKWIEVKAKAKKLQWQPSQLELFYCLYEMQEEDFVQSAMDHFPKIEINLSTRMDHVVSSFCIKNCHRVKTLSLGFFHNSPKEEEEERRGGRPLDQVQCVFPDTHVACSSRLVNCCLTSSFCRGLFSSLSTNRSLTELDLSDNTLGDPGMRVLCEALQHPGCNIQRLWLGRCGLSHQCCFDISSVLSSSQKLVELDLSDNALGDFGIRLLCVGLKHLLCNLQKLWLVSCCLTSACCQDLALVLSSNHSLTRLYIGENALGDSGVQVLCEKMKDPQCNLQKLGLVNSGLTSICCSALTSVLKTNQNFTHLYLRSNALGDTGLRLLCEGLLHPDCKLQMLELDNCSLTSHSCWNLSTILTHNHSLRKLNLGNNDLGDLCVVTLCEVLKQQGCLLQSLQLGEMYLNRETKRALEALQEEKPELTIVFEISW
From the text: NLRP3 is an important pattern recognition receptor, that can form the NLRP3 inflammasome through the adaptor ASC and pro-caspase-1. After activation, the NLRP3 inflammasome can mediate the activation of caspase-1, thus promoting the maturation and secretion of IL-1β. In order to determine whether the prepared guaianolide sesquiterpene lactone Compounds 1-8 can inhibit the activation of the NLRP3 inflammasome, we used LPS and ATP to induce the activation of the NLRP3 inflammasome, and observed the effects of Compounds 1-8 on the IL-1β level caused by NLRP3 inflammasome activation.
C57BL/6 mice were sacrificed by cervical dislocation, and then soaked in 75% alcohol for 5-10 min. Subsequently, two hind legs of the mice were cut off with scissors. Next, the meat was removed, and the leg bones were left, which were then washed with PBS for three times. After severing the bone at both ends, a sterile syringe filled with cold serum-free RPMI 1640 medium was used to flush the bone marrow into a 15 mL centrifuge tube. Subsequently, the bone marrow was centrifuged at 1500 rpm for 5 min, and the supernatant was discarded. The residue was resuspended with 1 mL of erythrocyte lysate, blown repeatedly, and then stood for 7 min to lyse erythrocytes. After centrifugation at 1500 rpm for 5 min, the supernatant was discarded. The residue was resuspended with the RPMI 1640 medium containing 100 ng/ml of rmM-CSF, and then transferred to a 6-well culture plate for culture.
The BMDMs were seeded on 6-well cell culture plates and then treated with 100 ng/ml ultrapure LPS for 3 h. […] Subsequently, the cells were stimulated with 5 mM ATP for 45 min. The supernatants were collected into 1.5 mL EP tubes for subsequent detection of IL-1β level.

Solubility test in water = assay type: physicochemical; details: thermodynamic from solid; deionized water, 37° C.
Description: Saturated solutions were formulated, filtered and analyzed by HPLC with a sample volume of 1 μL, 3 μL, 5 μL, 10 μL, 15 µL and 20 μL sequentially, and the standard curves of the corresponding compounds were drawn.
[…] of the above compounds were formulated, dissolved by ultrasound for 4 h, and placed on a water bath at 37° C. to stand for 1 h. The resulting unsaturated solutions were centrifuged. 30 μL of supernatants were removed, diluted by adding 200 μL of deionized water, and then filtered.

[2] = test system: mouse acute liver injury model; test: Mouse acute liver injury model (CCl4); assay type: in vivo, C57BL/6 mice
Description: The mice were randomly divided into 8 groups, one of which was randomly selected as the normal group, and the other 7 groups were the model group, the parent drug 1 (0.4 and 4 μmol/kg), the hydrochloride 22 (4 μmol/kg), and the fumarate 23 (0.4 and 4 μmol/kg) groups, respectively, with 6 mice in each group. In addition to the normal group injected with 10 mL olive oil/kg, the other mice were injected intraperitoneally with 0.5 mL CCl4+9.5 mL olive oil/kg weight, i.e., the ratio of CCl4 to olive oil was 1:19. […] The mice in the normal group and model group were administered intragastrically the same volume of the solvent 0.5% CMC-Na.
1 h after the last administration, blood was collected from the venous plexus of fundus oculi, stood at room temperature for 2 h, and centrifuged at 3000 rpm for 20 min. The serum was aspirated, aliquoted, and frozen at −70° C. for subsequent use. After blood collection, the mice were sacrificed by cervical dislocation, and the abdominal cavity was opened. The livers were taken out, and rinsed twice with pre-cooled PBS. The liver left lobe tissues of the mice were cut, and fixed with 4% paraformaldehyde for 24-48 h. The remaining tissues were frozen at −70° C. for subsequent use.
μL of each sample was taken for experiments. The levels of AST and ALT in the serum of mice were detected according to the operation manual. The absorbance value was detected at the wavelength of 510 nm by a microplate reader, and the sample concentration (U/L) was calculated according to the standard curve.
The extraction method of total RNA from tissues, cDNA synthesis and the PCR amplification method are the same as those in Example 4.

Structure (SMILES) | Non-degradation percentage at 8 h [1] [%] | Non-degradation percentage at 16 h [1] [%] | Non-degradation percentage at 24 h [1] [%] | IC50 (NLRP3 inflammasome) [nM] | solubility (Solubility test in water) [mg/mL] | Acta2 mRNA expression ([2]; liver, 400 μmol/kg) | Col1a1 mRNA expression ([2]; liver, 400 μmol/kg) | Tgfb1 mRNA expression ([2]; liver, 400 μmol/kg) | ALT ([2]; serum, 4 μmol/kg) [U/L] | AST ([2]; serum, 400 μmol/kg) [U/L]
C=C1C(=O)O[C@H]2[C@H]1CC[C@@]1(C)C[C@]13C[C@@H](O)[C@@](C)(O)[C@H]23 [Compound 4] | 98.15 | 96.84 | 96.21 | < 40 | 0.101 (≈ 0.362 mM) |  |  |  |  | 
C=C1C(=O)O[C@@H]2[C@@H]3[C@]4(CC[C@@]3(C)F)C[C@]4(C)CC[C@@H]12 [Compound 5] | 99.91 | 99.85 | 99.84 | < 40 | 0.0259 (≈ 0.0979 mM) |  |  |  |  | 
C=C1C(=O)O[C@@H]2[C@@H]3[C@]4(CC[C@@]3(C)OC(=O)CC)C[C@]4(C)CC[C@@H]12 [Compound 7] | 99.31 | 97.85 | 97.65 | < 40 | 0.0177 (≈ 0.0555 mM) |  |  |  |  | 
CC1=CC[C@@]23C[C@]2(C)CC[C@@H]2[C@H](OC(=O)[C@H]2CN(C)C)[C@@H]13 [Compound 24] |  |  |  | 40 to 80 | 96.6 (≈ 334 mM) |  |  |  |  | 
CO[C@]1(C)[C@H](O)C[C@@]23C[C@]2(C)CC[C@@H]2[C@H](OC(=O)[C@H]2CN(C)C)[C@@H]13 [Compound 25] |  |  |  | 40 to 80 | 221 (≈ 654 mM) |  |  |  |  | 
CC1=CC[C@@]23C[C@]2(C)CC[C@H]2[C@H](CN(C)C)C(=O)O[C@@H]2C13 (some centres unmarked) [Compound 28] |  |  |  | 80 to 100 | 120 (≈ 416 mM) |  |  |  |  | 
COc1cc(C2Oc3cc([C@H]4Oc5cc(O)cc(O)c5C(=O)[C@@H]4O)ccc3OC2CO)ccc1O (some centres unmarked) [Silybin, reference compound] |  |  |  |  |  | 2.91 | 1.84 | 1.11 | 121.58 | 301.45

Second part, led by results:

Non-degradation percentage at 8 h [1] [%] | Non-degradation percentage at 16 h [1] [%] | Non-degradation percentage at 24 h [1] [%] | IC50 (NLRP3 inflammasome) [nM] | solubility (Solubility test in water) [mg/mL] | Structure (SMILES) | Acta2 mRNA expression ([2]; liver, 400 μmol/kg) | Col1a1 mRNA expression ([2]; liver, 400 μmol/kg) | Tgfb1 mRNA expression ([2]; liver, 400 μmol/kg) | ALT ([2]; serum, 4 μmol/kg) [U/L] | AST ([2]; serum, 400 μmol/kg) [U/L]
90.92 | 86.62 | 78.26 | < 40 | 0.0008 (≈ 0.00327 mM) | C=C1C(=O)O[C@@H]2[C@H]3C(C)=CC[C@]34C[C@]4(C)CC[C@@H]12 [Compound 2] |  |  |  |  | 
99.98 | 99.87 | 97.77 | < 40 | 0.0355 (≈ 0.121 mM) | C=C1C(=O)O[C@H]2[C@H]1CC[C@@]1(C)C[C@]13C[C@@H](O)[C@@](C)(OC)[C@H]23 [Compound 3] |  |  |  |  | 
99.89 | 96.80 | 95.72 | < 40 | 0.00258 (≈ 0.0106 mM) | C=C1C(=O)O[C@@H]2C3=C(C)CC[C@]34C[C@]4(C)CC[C@@H]12 [Compound 6] |  |  |  |  | 
98.36 | 95.58 | 94.08 | < 40 | 0.00852 (≈ 0.0308 mM) | C=C1C(=O)O[C@@H]2[C@@H]3[C@]4(CC[C@@]3(C)OC)C[C@]4(C)CC[C@@H]12 [Compound 8] |  |  |  |  | 
 |  |  | 40 to 80 | 248 (≈ 768 mM) | CN(C)C[C@@H]1C(=O)O[C@H]2[C@H]1CC[C@@]1(C)C[C@]13C[C@@H](O)[C@@](C)(O)[C@H]23 [Compound 26] |  |  |  |  | 
 |  |  | 40 to 80 | 208 (≈ 674 mM) | CN(C)C[C@@H]1C(=O)O[C@H]2[C@H]1CC[C@@]1(C)C[C@]13CC[C@@](C)(F)[C@H]23 [Compound 27] |  |  |  |  | 
 |  |  | 40 to 80 | 195 (≈ 535 mM) | CCC(=O)O[C@]1(C)CC[C@@]23C[C@]2(C)CC[C@@H]2[C@H](OC(=O)[C@H]2CN(C)C)[C@H]31 [Compound 29] |  |  |  |  | 
68.91 | 65.42 | 57.86 |  | 44.8 (≈ 195 mM) | C=C1CC[C@H]2C(=C)CC[C@H]3C(=C)C(=O)O[C@@H]3[C@@H]12 [dehydrocostus lactone, reference compound] |  |  |  |  | 
